According to PubChem BioAssay (NCI):
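Five concentrations, 48 hours, 96-well plates. TGI: total growth inhibition.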

Tests used:
Experiment in all cases: DTP human tumour cell line panel, 48 h
786-0 renal = test system: 786-0 renal
COLO 205 colon = test system: COLO 205 colon
HCC-2998 colon = test system: HCC-2998 colon
HCT-15 colon = test system: HCT-15 colon
LOX IMVI melanoma = test system: LOX IMVI melanoma
MOLT-4 leukemia = test system: MOLT-4 leukemia
NCI-H522 lung = test system: NCI-H522 lung
PC-3 prostate = test system: PC-3 prostate
SN12C renal = test system: SN12C renal
SNB-19 CNS = test system: SNB-19 CNS

SMILES	TGI (786-0 renal)	TGI (COLO 205 colon)	TGI (HCC-2998 colon)	TGI (HCT-15 colon)	TGI (LOX IMVI melanoma)	TGI (MOLT-4 leukemia)	TGI (NCI-H522 lung)	TGI (PC-3 prostate)	TGI (SN12C renal)	TGI (SNB-19 CNS)
OC1(c2ccc(Cl)cc2)c2ccccc2C2=NCc3ccccc3CN21 (stereo not drawn)	19.4 µM	19 µM	5.13 µM	20 µM	24.3 µM	> 47.6 µM	27.7 µM	15.2 µM	> 52.4 µM	13.4 µM
Cc1nc2sccn2c1C(=O)OCCOCCOCCOCCOC(=O)c1c(C)nc2sccn12	> 100 µM	> 100 µM	> 100 µM	> 100 µM	> 100 µM	> 100 µM	> 100 µM	> 100 µM	> 100 µM	> 100 µM
CCOC(=O)c1ccc(NC(NC(=O)CC)(C(F)(F)F)C(F)(F)F)cc1	> 100 µM	> 100 µM	> 100 µM	> 100 µM	> 100 µM	> 100 µM	> 100 µM	> 100 µM		> 100 µM
CC12CCC(C1)C(C)(C)C2OC(=O)c1ccccc1C(=O)O (stereo not drawn)	> 100 µM	> 100 µM	> 100 µM	> 100 µM	> 100 µM	> 100 µM	> 100 µM	> 100 µM	> 100 µM	> 100 µM
C/C(NC(=O)c1ccccc1)=C(/C(=O)c1ccccc1)[C@@H]1OC(C)(C)O[C@@H]1[C@H]1COC(C)(C)O1	39.7 µM	48.9 µM	87.6 µM	> 100 µM	45.5 µM	37.2 µM	36 µM	> 100 µM	60.4 µM	> 100 µM
Cc1ccc(NC(=O)CC(=O)N2N=C(c3ccccc3)C(N=Nc3ccc(S(=O)(=O)CCOS(=O)(=O)O)cc3)C2=O)cc1 (stereo not drawn)	> 100 µM	> 100 µM	> 100 µM	> 100 µM	> 100 µM	> 100 µM	> 100 µM	> 100 µM	> 100 µM	> 100 µM
C=CCc1cccc2cc(C(=O)Nc3nc(C45CC6CC(CC(C6)C4)C5)cs3)c(=O)oc12	54.6 µM	58.9 µM	> 100 µM	> 100 µM	42.8 µM	> 100 µM	> 100 µM	> 100 µM	> 100 µM	64.2 µM
Cc1ccc(CC(=O)Nc2ccc(NC(=O)CNC(=O)/C=C/c3ccc(-c4ccccc4)cc3)cc2C(=O)c2ccccc2)cc1	5.48 µM	32 µM	4.98 µM	13.2 µM	13.4 µM	15.3 µM	18.4 µM	4.07 µM	9.93 µM	20.3 µM
OCCNc1nc2c(N3CCCC3)nc(N3CCNCC3)nc2nc1NCc1ccccc1	28 µM	24.9 µM	29.1 µM	32.2 µM	29.1 µM	33.3 µM	30.7 µM	30.7 µM	30.7 µM	29.4 µM
COC1=C(OC)C(=O)C(Cc2c(Cl)nc3n2CCS3)=C(C)C1=O	37.9 µM	31.5 µM	37.6 µM	39.8 µM	29.3 µM	3.28 µM	25.4 µM	64.2 µM	31.3 µM	33.1 µM
CCCC1C(C#N)(C#N)C(C#N)=C(N)C1(C)C(C)=O (stereo not drawn)	> 100 µM	> 100 µM	> 100 µM	> 100 µM	> 100 µM	> 100 µM	> 100 µM	> 100 µM	> 100 µM	> 100 µM
O=C(O)C(CO)NC(=O)C1C(C(=O)O)C(c2ccccc2[N+](=O)[O-])C=C(c2ccco2)N1c1ccncc1 (stereo not drawn)	6.01 µM	12 µM	9.13 µM	4.39 µM	3.42 µM	> 22.5 µM	19 µM	22.1 µM	25.4 µM	24.5 µM
Cc1ccc(Nc2nc(NS(=O)(=O)c3cc(C)c(Cl)cc3S)n[nH]2)cc1	> 100 µM	> 100 µM	> 100 µM	> 100 µM	> 100 µM	> 100 µM	> 100 µM	> 100 µM	> 100 µM	> 100 µM
CC(C)(C)OC(=O)NCCNC(=O)CN(CC(=O)O)C1CCCCC1N(CC(=O)O)CC(=O)O (stereo not drawn)	> 100 µM	> 100 µM	> 100 µM	> 100 µM	> 100 µM	> 100 µM	> 100 µM	> 100 µM	> 100 µM	> 100 µM
Clc1ccc(-c2nn3c(C45CC6CC(CC(C6)C4)C5)nnc3s2)cc1	> 100 µM	> 100 µM	> 100 µM	> 100 µM	> 100 µM	> 100 µM	> 100 µM	> 100 µM	> 100 µM	> 100 µM
O=C(NNCc1ccccc1O)c1ccccc1O	> 100 µM	> 100 µM	45.1 µM	> 100 µM	> 100 µM	> 100 µM	> 100 µM	> 100 µM	> 100 µM	> 100 µM
Nc1ccc(-c2nc3cc(F)ccc3s2)cc1	> 100 µM	> 100 µM	> 100 µM	> 85.7 µM	> 100 µM	> 100 µM	> 100 µM	45.8 µM	> 100 µM	> 100 µM

SMILES	TGI (786-0 renal)	TGI (COLO 205 colon)	TGI (HCC-2998 colon)	TGI (HCT-15 colon)	TGI (LOX IMVI melanoma)	TGI (MOLT-4 leukemia)	TGI (NCI-H522 lung)	TGI (PC-3 prostate)	TGI (SN12C renal)	TGI (SNB-19 CNS)
O=[N+]([O-])c1ccc(-[n+]2ccc3ccccc3c2)c([N+](=O)[O-])c1	3.24 µM	6.29 µM	26.7 µM	3.65 µM	3.67 µM	> 21 µM	3.74 µM	13.1 µM	6.82 µM	34.7 µM
CC(CN(C)C)C(=O)/C=C/c1ccc(Cl)c(Cl)c1 (stereo not drawn)	2.01 µM	2.58 µM	3.48 µM		2.99 µM	> 100 µM	3.24 µM	2.25 µM	3.11 µM	19.7 µM
CC1=CC(=O)/C(=C/N2CCNC2=S)C(=O)O1	> 100 µM	> 100 µM	> 100 µM	> 100 µM	> 100 µM	> 100 µM	> 100 µM	> 100 µM	> 100 µM	> 100 µM
Cc1nc2ccccc2cc1C[N+]12CN3CN(CN(C3)C1)C2	37.8 µM	28.8 µM	30.8 µM	47 µM	32.8 µM	> 100 µM	38.2 µM	34.3 µM	48.1 µM	56.5 µM
O=C1CC(Cl)c2c(Cl)sc(Cl)c21 (stereo not drawn)	2.82 µM	3.7 µM	5.54 µM	5.07 µM	3.15 µM	2.37 µM	4.51 µM	5.64 µM	3.15 µM	24 µM
COc1cnnc2c(C)c(-c3ccccc3)nn12	> 100 µM	> 100 µM	> 100 µM	> 100 µM	> 100 µM	> 100 µM	> 100 µM	> 100 µM	> 100 µM	> 100 µM
COc1cc(C2c3cc4c(cc3OC(N3CCOCC3)C2C)OCO4)cc(OC)c1OC(C)=O (stereo not drawn)	> 100 µM	52 µM	50.5 µM	> 100 µM	> 100 µM	> 100 µM	33.2 µM	> 100 µM	> 84.2 µM	> 46.4 µM
CC(C)C(/C=C/c1ccccc1)=N\NC(=S)NN	> 100 µM	> 100 µM	> 100 µM	> 100 µM	> 100 µM	> 100 µM	> 89.3 µM	> 100 µM	> 100 µM	> 100 µM
CCOC(=O)C1=CN(C(=O)c2ccccc2)CCC1Cc1ccccc1 (stereo not drawn)	> 100 µM	51.9 µM	38.5 µM	> 100 µM	34.4 µM	38.5 µM	40.5 µM	78.1 µM	57.4 µM	> 100 µM
CCOC(=O)/C=C(/C(=O)OCC)n1ccc(=O)[nH]c1=O	11.3 µM	3.99 µM	32.3 µM	9.39 µM	22.3 µM	6.12 µM	2.72 µM	26.8 µM	19.6 µM	29.8 µM
Cc1nn(C(=O)c2ccc(Cl)cc2)c2c1C(c1ccco1)SC(N)=N2 (stereo not drawn)	> 10 µM	> 10 µM	> 10 µM	> 10 µM	> 10 µM	> 10 µM	> 10 µM	> 10 µM	> 10 µM	> 10 µM
C=C1[C@H](OCC(C)C)[C@@H](OC(=O)C(C)CC)[C@@H](O)C(C)(C)/C=C/[C@H](C)C(=O)[C@@]2(O)C[C@H](C)[C@H](O)[C@@H]2[C@H]1OC(=O)C(C)CC (stereo partly drawn)	> 20 µM	> 9.67 µM	> 9.84 µM	> 20 µM	> 13.3 µM	> 10.3 µM	> 20 µM	> 14.8 µM	> 20 µM	> 20 µM
COC1=CCC2=C(CCN(C(=O)C3CCC3)C2Cc2ccc(OC)c(O)c2)C1 (stereo not drawn)	47.4 µM	32.1 µM	41.3 µM	25.1 µM	> 100 µM	> 100 µM	42 µM	> 100 µM	54.3 µM	> 100 µM
O=Cc1cc(O)c(O)c(/C=N/n2c3ccccc3c3ccccc32)c1	20.7 µM	26.3 µM	30.9 µM	19.4 µM	> 100 µM	12.5 µM	7.03 µM	28.7 µM	18.2 µM	> 100 µM
CSc1nc(=O)c(C#N)c(-c2ccccc2)n1C1OC(COC(C)=O)C(OC(C)=O)C(OC(C)=O)C1OC(C)=O (stereo not drawn)	> 100 µM	> 100 µM	> 100 µM	> 100 µM	> 100 µM	> 100 µM	> 100 µM	> 100 µM	> 100 µM	> 100 µM
CC(=O)C(C(=O)C(C)(C)C)C(=O)C(C)(C)C	> 100 µM	> 100 µM	> 100 µM	> 100 µM	> 100 µM	> 100 µM	> 100 µM	> 100 µM	> 100 µM	> 100 µM
COc1cccc(/C=N/n2c(Cc3ccc(Cl)cc3)n[nH]c2=O)c1	> 71.9 µM	> 100 µM	> 100 µM	> 100 µM	> 100 µM	> 100 µM	50.6 µM	> 100 µM	71 µM	67.8 µM
